Measurements as given in patent US20220363686A1 (AiCuris GmbH & Co. KG, priority 2018, published 2022).

Columns and labels:
HBV = assay: Determination of HBV DNA from the supernatants of HepAD38 cells (anti-HBV activity); format: cell-based, hepatitis B virus; conditions: Hepatitis B virus, HePAD38, 144 h, HBV DNA in HepAD38 supernatant, day 6, qPCR; read-out: Cell Activity
How it was run: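 EC50 derived by non-linear regression of relative HBV DNA copy numbers, measured by qPCR (plasmid standards) in day-6 filtered supernatants. Before this, HepAD38 cells were exposed to serial half-log compound dilutions without tetracycline, releasing viral expression; cultures kept at 37 °C, 5% CO2.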

[1] = Cell viability assay (AlamarBlue); conditions: human, HepAD38 cells
[2] = target: HBV core protein (C-terminal truncated core protein containing 149 amino acids of the N-terminal assembly domain) (UniProt P03146); assay: Biochemical capsid assembly assay (fluorescence quenching); set-up: rows headed: Assembly Activity; other: BODIPY-FL labelled core protein, assembly started with NaCl, read after 6 min; conditions: read-out: Assembly Activity; BODIPY-FL labelled core protein, assembly started with NaCl, read after 6 min
Chain of HBV core protein (C-terminal truncated core protein containing 149 amino acids of the N-terminal assembly domain) (P03146 whole entry, the tested form may be a part): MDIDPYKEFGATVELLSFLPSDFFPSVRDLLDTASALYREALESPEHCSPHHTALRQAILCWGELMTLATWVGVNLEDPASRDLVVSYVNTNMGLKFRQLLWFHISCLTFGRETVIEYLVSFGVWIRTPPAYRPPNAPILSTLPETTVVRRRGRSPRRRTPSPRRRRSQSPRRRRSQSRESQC
How it was run: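 N-terminal assembly domain (residues 1–149) plus C-terminal Cys150, E. coli-expressed, BODIPY-FL-maleimide labelled, used at 1.0–2.0 μM in 50 mM HEPES pH 7.5 with 0.5% DMSO. Assembly started with NaCl ([…]); fluorescence quenching (ex 477/em 525 nm) read after 6 min. 8-point compound series; EC50 by non-linear regression.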

Structure (SMILES) | EC50 (HBV) [µM] | CC50 at 6 days [1] [µM] | IC50 [2] [µM]
O=C(NC1(COC(F)F)CC1)c1cnn2c1CN(C(=O)c1cc3cc(F)c(Cl)cc3[nH]1)CC2 [Example 92, 5-(6-chloro-5-fluoro-1H-indole-2-carbonyl)-N-{1-[(difluoromethoxy)methyl]cyclopropyl}-4H,5H,6H,7H-pyrazolo[1,5-a]pyrazine-3-carboxamide] | < 1 | > 10 | < 5
CC1Cn2ncc(C(=O)NC3(COC(F)F)CC3)c2CN1C(=O)c1cc2cc(F)c(Cl)cc2[nH]1 (stereo not drawn) [Example 93, 5-(6-chloro-5-fluoro-1H-indole-2-carbonyl)-N-{1-[(difluoromethoxy)methyl]cyclopropyl}-6-methyl-4H,5H,6H,7H-pyrazolo[1,5-a]pyrazine-3-carboxamide] | < 1 | > 10 | < 5
CC1Cn2ncc(C(=O)NC3(COC(F)F)CC3)c2CN1C(=O)c1cc2cc(F)c(F)cc2[nH]1 (stereo not drawn) [Example 94, 5-(5,6-difluoro-1H-indole-2-carbonyl)-N-{1-[(difluoromethoxy)methyl]cyclopropyl}-6-methyl-4H,5H,6H,7H-pyrazolo[1,5-a]pyrazine-3-carboxamide] | < 1 | > 10 | < 5
CCc1cccc2[nH]c(C(=O)N3CCn4ncc(C(=O)N(C)C5(CO)CC5)c4C3)cc12 [Example 95, 5-(4-ethyl-1H-indole-2-carbonyl)-N-[1-(hydroxymethyl)cyclopropyl]-N-methyl-4H,5H,6H,7H-pyrazolo[1,5-a]pyrazine-3-carboxamide] | < 1 | > 10 | < 5
CN(C(=O)c1cnn2c1CN(C(=O)c1cc3c(Cl)c(F)ccc3[nH]1)CC2)C1(CO)CC1 [Example 96, 5-(4-chloro-5-fluoro-1H-indole-2-carbonyl)-N-[1-(hydroxymethyl)cyclopropyl]-N-methyl-4H,5H,6H,7H-pyrazolo[1,5-a]pyrazine-3-carboxamide] | < 1 | > 10 | < 5
O=C(NC1(COC(F)F)CC1)c1cnn2c1CN(C(=O)c1cc3ccccc3[nH]1)CC2 [Example 97, N-{1-[(difluoromethoxy)methyl]cyclopropyl}-5-(1H-indole-2-carbonyl)-4H,5H,6H,7H-pyrazolo[1,5-a]pyrazine-3-carboxamide] | < 1 | > 10 | < 5
O=C(NC1(c2ccncc2)CC1)c1cnn2c1CN(C(=O)c1cc3ccccc3[nH]1)CC2 [Example 98, 5-(1H-indole-2-carbonyl)-N-[1-(pyridin-4-yl)cyclopropyl]-4H,5H,6H,7H-pyrazolo[1,5-a]pyrazine-3-carboxamide] | < 1 | > 10 | < 5
CNC(=O)c1cnn2c1CN(C(=O)c1cc3ccccc3[nH]1)CC2 [Example 100, 5-(1H-indole-2-carbonyl)-N-methyl-4H,5H,6H,7H-pyrazolo[1,5-a]pyrazine-3-carboxamide] | < 100 | > 10 | 5 to 10
O=C(NC1(C(F)(F)F)CC1)c1cnn2c1CN(C(=O)c1cc3ccccc3[nH]1)CC2 [Example 101, 5-(1H-indole-2-carbonyl)-N-[1-(trifluoromethyl)cyclopropyl]-4H,5H,6H,7H-pyrazolo[1,5-a]pyrazine-3-carboxamide] | < 1 | > 10 | < 5
Cc1cc(F)cc2[nH]c(C(=O)N3CCn4ncc(C(=O)NC5(COC(F)F)CC5)c4C3)cc12 [Example 102, N-{1-[(difluoromethoxy)methyl]cyclopropyl}-5-(6-fluoro-4-methyl-1H-indole-2-carbonyl)-4H,5H,6H,7H-pyrazolo[1,5-a]pyrazine-3-carboxamide] | < 1 | > 10 | < 5
Cc1c(F)ccc2[nH]c(C(=O)N3CCn4ncc(C(=O)NC5(COC(F)F)CC5)c4C3)cc12 [Example 103, N-{1-[(difluoromethoxy)methyl]cyclopropyl}-5-(5-fluoro-4-methyl-1H-indole-2-carbonyl)-4H,5H,6H,7H-pyrazolo[1,5-a]pyrazine-3-carboxamide] | < 1 | > 10 | < 5
O=C(NC1(COC(F)F)CC1)c1cnn2c1CN(C(=O)c1cc3c(F)c(F)ccc3[nH]1)CC2 [Example 104, 5-(4,5-difluoro-1H-indole-2-carbonyl)-N-{1-[(difluoromethoxy)methyl]cyclopropyl}-4H,5H,6H,7H-pyrazolo[1,5-a]pyrazine-3-carboxamide] | < 1 | > 10 | < 5
O=C(NC1(COC(F)F)CC1)c1cnn2c1CN(C(=O)c1cc3c(Cl)cccc3[nH]1)CC2 [Example 105, 5-(4-chloro-1H-indole-2-carbonyl)-N-{1-[(difluoromethoxy)methyl]cyclopropyl}-4H,5H,6H,7H-pyrazolo[1,5-a]pyrazine-3-carboxamide] | < 1 | > 10 | < 5
O=C(NC1(C(F)(F)F)CCC1)c1cnn2c1CN(C(=O)c1cc3ccccc3[nH]1)CC2 [Example 106, 5-(1H-indole-2-carbonyl)-N-[1-(trifluoromethyl)cyclobutyl]-4H,5H,6H,7H-pyrazolo[1,5-a]pyrazine-3-carboxamide] | < 1 | > 10 | < 5
Cc1cc(F)cc2[nH]c(C(=O)N3CCn4ncc(C(=O)N5CCCOCC56CC6)c4C3)cc12 [Example 107, 4-[5-(6-fluoro-4-methyl-1H-indole-2-carbonyl)-4H,5H,6H,7H-pyrazolo[1,5-a]pyrazine-3-carbonyl]-8-oxa-4-azaspiro[2.6]nonane] | < 1 | > 10 | < 5
Cc1c(F)ccc2[nH]c(C(=O)N3CCn4ncc(C(=O)N5CCCOCC56CC6)c4C3)cc12 [Example 108, 4-[5-(5-fluoro-4-methyl-1H-indole-2-carbonyl)-4H,5H,6H,7H-pyrazolo[1,5-a]pyrazine-3-carbonyl]-8-oxa-4-azaspiro[2.6]nonane] | < 1 | > 10 | < 5
O=C(c1cc2c(F)c(F)ccc2[nH]1)N1CCn2ncc(C(=O)N3CCCOCC34CC4)c2C1 [Example 109, 4-[5-(4,5-difluoro-1H-indole-2-carbonyl)-4H,5H,6H,7H-pyrazolo[1,5-a]pyrazine-3-carbonyl]-8-oxa-4-azaspiro[2.6]nonane] | < 1 | > 10 | < 5
O=C(c1cc2c(Cl)cccc2[nH]1)N1CCn2ncc(C(=O)N3CCCOCC34CC4)c2C1 [Example 110, 4-[5-(4-chloro-1H-indole-2-carbonyl)-4H,5H,6H,7H-pyrazolo[1,5-a]pyrazine-3-carbonyl]-8-oxa-4-azaspiro[2.6]nonane] | < 1 | > 10 | < 5
O=C(c1cc2cc(Cl)c(F)cc2[nH]1)N1CCn2ncc(C(=O)N3CCCOCC34CC4)c2C1 [Example 111, 4-[5-(5-chloro-6-fluoro-1H-indole-2-carbonyl)-4H,5H,6H,7H-pyrazolo[1,5-a]pyrazine-3-carbonyl]-8-oxa-4-azaspiro[2.6]nonane] | < 1 | > 10 | < 5
Cc1cc(F)cc2[nH]c(C(=O)N3CCn4ncc(C(=O)N[C@H](C)C(F)(F)F)c4C3)cc12 [Example 112, 5-(6-fluoro-4-methyl-1H-indole-2-carbonyl)-N-[(2R)-1,1,1-trifluoropropan-2-yl]-4H,5H,6H,7H-pyrazolo[1,5-a]pyrazine-3-carboxamide] | < 1 | > 10 | < 5
Cc1c(F)ccc2[nH]c(C(=O)N3CCn4ncc(C(=O)N[C@H](C)C(F)(F)F)c4C3)cc12 [Example 113, 5-(5-fluoro-4-methyl-1H-indole-2-carbonyl)-N-[(2R)-1,1,1-trifluoropropan-2-yl]-4H,5H,6H,7H-pyrazolol[1,5-a]pyrazine-3-carboxamide] | < 1 | > 10 | < 5
C[C@@H](NC(=O)c1cnn2c1CN(C(=O)c1cc3c(F)c(F)ccc3[nH]1)CC2)C(F)(F)F [Example 114, 5-(4,5-difluoro-1H-indole-2-carbonyl)-N-[(2R)-1,1,1-trifluoropropan-2-yl]-4H,5H,6H,7H-pyrazolo[1,5-a]pyrazine-3-carboxamide] | < 1 | > 10 | < 5
C[C@@H](NC(=O)c1cnn2c1CN(C(=O)c1cc3c(Cl)cccc3[nH]1)CC2)C(F)(F)F [Example 115, 5-(4-chloro-1H-indole-2-carbonyl)-N-[(2R)-1,1,1-trifluoropropan-2-yl]-4H,5H,6H,7H-pyrazolo[1,5-a]pyrazine-3-carboxamide] | < 1 | > 10 | < 5
C[C@@H](NC(=O)c1cnn2c1CN(C(=O)c1cc3cc(Cl)c(F)cc3[nH]1)CC2)C(F)(F)F [Example 116, 5-(5-chloro-6-fluoro-1H-indole-2-carbonyl)-N-[(2R)-1,1,1-trifluoropropan-2-yl]-4H,5H,6H,7H-pyrazolo[1,5-a]pyrazine-3-carboxamide] | < 1 | > 10 | < 5
